In PubChem BioAssay (NCI):
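Values below derive from 48-hour exposures of cells grown in 96-well plates, with endpoints linearly interpolated between the two concentrations bracketing the appropriate inhibition level. Definition used: TGI = concentration required for complete inhibition of growth.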

What was measured:
Test in all cases: growth of human tumour cells (NCI), 48 h
[1] = system: PC-3 prostate
[2] = system: BT-549 breast
[3] = system: MDA-MB-435
[4] = system: MDA-MB-231 breast
[5] = system: HS 578T breast
[6] = system: T-47D breast
[7] = system: DU-145 prostate

| SMILES | TGI [1] [µM] | TGI [2] [µM] | TGI [3] [µM] | TGI [4] [µM] | TGI [5] [µM] | TGI [6] [µM] | TGI [7] [µM] |
| --- | --- | --- | --- | --- | --- | --- | --- |
| OCCNCCN1CCN(CCCN2c3ccccc3Sc3ccc(C(F)(F)F)cc32)CC1 | 62.1 | > 100 | 33.7 | 35.5 | 70.1 | 50.4 | > 100 |
| CN(C)CCCN1c2ccccc2Sc2ccc3ccccc3c21 | 14.6 | 26.3 | 10.4 | 13.7 | 25.6 | 5.65 | 25.4 |
| CCCc1c(-c2ccccc2)[nH]c2ccccc2c1=O | > 100 | > 100 | > 100 | > 100 | > 100 | 99.8 | > 100 |
| Cn1c(=O)c2[nH]c(CCNC(=O)c3ccccc3)nc2n(C)c1=O | > 100 | > 100 | > 100 | > 100 | > 100 | > 100 | > 100 |
| O=c1ssc(=Nc2ccccc2)n1-c1ccccc1 | 38.5 | – | > 100 | 60.5 | 98.7 | 39.1 | 39.9 |
